Converted amounts (≈) assume the structure as drawn.
Tests used:
[1] = target: IRAK4 (Homo sapiens (Human), UniProt Q9NWZ3); assay: IRAK4 2-hour 1 mM ATP Biochemical Assay (MesoScale Detection format); details: 100 pM IRAK4, read-out: IRAK4 IC50
[2] = Kinetic solubility assay (CLND), potassium phosphate buffer pH 6.8; assay type: physicochemical; details: pH 6.8, 2% DMSO, 24 hours at ambient temperature; for solubility at 24 h: potassium phosphate buffer, pH 6.8, aqueous buffer, kinetic from dmso stock
[3] = target: MDR1 (Homo sapiens (Human), UniProt P08183); assay: MDR1-MDCK assay (apparent permeability, efflux ratio); assay type: in vitro ADME; details: human, MDCK-MDR1, 1 μM, read-out: MDR1-MDCK_Efflux Ratio
Sequence of MDR1 (P08183 whole entry): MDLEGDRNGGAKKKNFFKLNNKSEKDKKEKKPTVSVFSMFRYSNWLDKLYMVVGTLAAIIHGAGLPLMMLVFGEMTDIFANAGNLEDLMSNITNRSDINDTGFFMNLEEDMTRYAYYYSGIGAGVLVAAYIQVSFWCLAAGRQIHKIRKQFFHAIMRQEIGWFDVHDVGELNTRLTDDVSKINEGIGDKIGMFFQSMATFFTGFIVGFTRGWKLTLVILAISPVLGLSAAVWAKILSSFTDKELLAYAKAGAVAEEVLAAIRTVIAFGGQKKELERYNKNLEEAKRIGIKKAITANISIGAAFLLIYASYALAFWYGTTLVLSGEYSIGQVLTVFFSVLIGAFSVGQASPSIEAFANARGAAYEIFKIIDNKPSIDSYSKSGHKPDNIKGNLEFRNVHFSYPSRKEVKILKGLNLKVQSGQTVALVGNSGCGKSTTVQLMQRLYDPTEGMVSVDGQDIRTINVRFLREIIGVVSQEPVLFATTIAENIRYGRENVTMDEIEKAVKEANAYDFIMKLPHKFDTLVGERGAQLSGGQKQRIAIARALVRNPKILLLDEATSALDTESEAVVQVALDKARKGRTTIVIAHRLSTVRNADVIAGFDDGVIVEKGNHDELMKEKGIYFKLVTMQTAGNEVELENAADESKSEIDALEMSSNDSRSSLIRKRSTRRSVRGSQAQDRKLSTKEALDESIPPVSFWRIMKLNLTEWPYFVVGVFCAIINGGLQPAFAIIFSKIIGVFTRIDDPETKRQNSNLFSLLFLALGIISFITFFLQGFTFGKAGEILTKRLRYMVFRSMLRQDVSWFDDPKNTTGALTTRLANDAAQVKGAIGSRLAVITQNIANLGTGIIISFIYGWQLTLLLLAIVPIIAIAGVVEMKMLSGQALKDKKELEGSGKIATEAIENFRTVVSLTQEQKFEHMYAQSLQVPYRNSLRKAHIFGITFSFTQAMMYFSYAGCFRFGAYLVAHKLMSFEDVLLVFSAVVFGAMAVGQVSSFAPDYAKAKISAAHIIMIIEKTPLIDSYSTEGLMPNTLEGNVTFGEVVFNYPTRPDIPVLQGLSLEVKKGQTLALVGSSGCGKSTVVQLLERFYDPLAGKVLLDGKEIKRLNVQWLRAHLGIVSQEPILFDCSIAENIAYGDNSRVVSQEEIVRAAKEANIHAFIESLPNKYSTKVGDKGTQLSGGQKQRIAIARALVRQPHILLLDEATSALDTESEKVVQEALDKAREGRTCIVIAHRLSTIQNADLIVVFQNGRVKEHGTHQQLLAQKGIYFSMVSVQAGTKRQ

Sequence of IRAK4 (Q9NWZ3 whole entry): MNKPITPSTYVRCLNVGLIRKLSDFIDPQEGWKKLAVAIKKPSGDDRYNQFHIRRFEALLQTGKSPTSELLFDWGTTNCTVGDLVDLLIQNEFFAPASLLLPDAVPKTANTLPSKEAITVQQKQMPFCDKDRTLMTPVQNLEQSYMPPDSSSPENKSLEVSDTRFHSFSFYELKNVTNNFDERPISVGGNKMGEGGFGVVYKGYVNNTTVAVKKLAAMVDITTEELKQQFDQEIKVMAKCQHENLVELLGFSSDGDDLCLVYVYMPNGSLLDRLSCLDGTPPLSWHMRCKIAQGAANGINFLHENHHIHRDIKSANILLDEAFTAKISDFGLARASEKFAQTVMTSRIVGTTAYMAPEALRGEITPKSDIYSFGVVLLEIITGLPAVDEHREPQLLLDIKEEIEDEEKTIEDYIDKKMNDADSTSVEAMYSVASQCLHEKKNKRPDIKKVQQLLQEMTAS

Row | SMILES | IC50 [1] [nM] | solubility at 24 h [2] [µg/mL] | efflux ratio at 120 min, 1 μM [3] | Solubility pH 6.8 [2] [ug/mL]
1 | CC(C)Oc1cc2nn([C@]34CC[C@](C)(C3)OC4)cc2cc1C(=O)Nc1cccn([C@H]2C[C@@H]2F)c1=O (single isomer, unassigned) [Example 62] | 0.6 | 56.1 (≈ 117 µM) | 1.6 | –
2 | CC(C)Oc1cc2nn(C34COC(C)(C3)C4)cc2cc1C(=O)Nc1ccnn(C2CC2)c1=O [Example 45, N-(2-cyclopropyl-3-oxo-2,3-dihydropyridazin-4-yl)-6-isopropoxy-2-(1-methyl-2-oxabicyclo[2.1.1]hexan-4-yl)-2H-indazole-5-carboxamide] | 1.3 | 1.2 (≈ 2.67 µM) | 0.73 | –
3 | CC[C@@H](C)Oc1nc2nn(C34COC(C)(C3)C4)cc2cc1C(=O)Nc1cccn(C2CC2)c1=O [Example 14, (R)-6-(sec-butoxy)-N-(1-cyclopropyl-2-oxo-1,2-dihydropyridin-3-yl)-2-(1-methyl-2-oxabicyclo[2.1.1]hexan-4-yl)-2H-pyrazolo[3,4-b]pyridine-5-carboxamide] | 1.4 | 43 (≈ 92.8 µM) | 2.27 | –
4 | C[C@@]12CC[C@@](n3cc4cc(C(=O)Nc5cccn(C6CC6)c5=O)c(OC5CCC5)nc4n3)(CO1)C2 [Example 6, 6-cyclobutoxy-N-(1-cyclopropyl-2-oxo-1,2-dihydropyridin-3-yl)-2-((1S,4S)-1-methyl-2-oxabicyclo[2.2.1]heptan-4-yl)-2H-pyrazolo[3,4-b]pyridine-5-carboxamide] | 0.4 | 5.57 (≈ 11.7 µM) | 1.59 | –
5 | COCC12CC(n3cc4cc(C(=O)Nc5cccn([C@H]6C[C@H]6C)c5=O)c(OC(C)C)cc4n3)(CO1)C2 [Example 78, 6-isopropoxy-2-(1-(methoxymethyl)-2-oxabicyclo[2.1.1]hexan-4-yl)-N-(1-((1S,2R)-2-methylcyclopropyl)-2-oxo-1,2-dihydropyridin-3-yl)-2H-indazole-5-carboxamide] | 0.7 | 36.1 (≈ 73.3 µM) | 2.05 | –
6 | CC12CC(n3cc4cc(C(=O)Nc5cccn([C@@H]6C[C@@H]6F)c5=O)c(OC5CCC5)nc4n3)(CO1)C2 [Example 26, 6-cyclobutoxy-N-(1-((1R,2S)-2-fluorocyclopropyl)-2-oxo-1,2-dihydropyridin-3-yl)-2-(1-methyl-2-oxabicyclo[2.1.1]hexan-4-yl)-2H-pyrazolo[3,4-b]pyridine-5-carboxamide] | 7.3 | 1.6 (≈ 3.34 µM) | 4.05 | –
7 | C[C@]12CC[C@](n3cc4cc(C(=O)Nc5cccn(C6CC6)c5=O)c(OC5CCC5)nc4n3)(CO1)C2 [Example 7, 6-cyclobutoxy-N-(1-cyclopropyl-2-oxo-1,2-dihydropyridin-3-yl)-2-((1R,4R)-1-methyl-2-oxabicyclo[2.2.1]heptan-4-yl)-2H-pyrazolo[3,4-b]pyridine-5-carboxamide] | 0.7 | 10.3 (≈ 21.6 µM) | 1.43 | –
8 | COCC12CC(n3cc4cc(C(=O)Nc5cccn([C@H]6C[C@@H]6F)c5=O)c(OC(C)C)cc4n3)(CO1)C2 (single isomer, unassigned) [Example 56] | 0.8 | 63.9 (≈ 129 µM) | 3.31 | –
9 | CC(C)Oc1cc2nn([C@]34CC[C@](C)(C3)OC4)cc2cc1C(=O)Nc1cccn([C@@H]2C[C@H]2F)c1=O (single isomer, unassigned) [Example 61] | 0.5 | 51.5 (≈ 107 µM) | 1.43 | –
10 | COCC12CC(n3cc4cc(C(=O)Nc5cccn([C@H]6C[C@H]6F)c5=O)c(OC(C)C)cc4n3)(CO1)C2 [Example 67, N-(1-((1S,2R)-2-fluorocyclopropyl)-2-oxo-1,2-dihydropyridin-3-yl)-6-isopropoxy-2-(1-(methoxymethyl)-2-oxabicyclo[2.1.1]hexan-4-yl)-2H-indazole-5-carboxamide] | 0.4 | 34 (≈ 68.5 µM) | 5.31 | –
11 | CC12CC(n3cc4cc(C(=O)Nc5cccn(C6CC6)c5=O)c(OC5CCC5)cc4n3)(CO1)C2 [Example 1, 6-Cyclobutoxy-N-(1-cyclopropyl-2-oxo-1,2-dihydropyridin-3-yl)-2-(1-methyl-2-oxabicyclo[2.1.1]hexan-4-yl)-2H-indazole-5-carboxamide] | 0.9 | 71 (≈ 154 µM) | – | –

Second part, the molecule after the results:

Row | IC50 [1] [nM] | solubility at 24 h [2] [µg/mL] | efflux ratio at 120 min, 1 μM [3] | Solubility pH 6.8 [2] [ug/mL] | SMILES
12 | 0.8 | 12.3 (≈ 24.1 µM) | 3.38 | – | COCC12CC(n3cc4cc(C(=O)Nc5cccn([C@H]6C[C@@H]6F)c5=O)c(OC5CCC5)nc4n3)(CO1)C2 (single isomer, unassigned) [Example 66]
13 | 0.4 | 2.7 (≈ 6.2 µM) | 4.72 | – | CC(C)Oc1nc2nn(C34COC(C3)C4)cc2cc1C(=O)Nc1cccn(C2CC2)c1=O [Example 28, 2-(2-oxabicyclo[2.1.1]hexan-4-yl)-N-(1-cyclopropyl-2-oxo-1,2-dihydropyridin-3-yl)-6-isopropoxy-2H-pyrazolo[3,4-b]pyridine-5-carboxamide]
14 | 0.9 | 38.1 (≈ 82.6 µM) | 2.28 | – | C[C@@H]1C[C@@H]1n1cccc(NC(=O)c2cc3cn(C45COC(C)(C4)C5)nc3nc2OC2CC2)c1=O [Example 89, 6-cyclopropoxy-2-(1-methyl-2-oxabicyclo[2.1.1]hexan-4-yl)-N-(1-((1S,2R)-2-methylcyclopropyl)-2-oxo-1,2-dihydropyridin-3-yl)-2H-pyrazolo[3,4-b]pyridine-5-carboxamide]
15 | 0.2 | 74.2 (≈ 150 µM) | 2.79 | – | COCC12CCC(n3cc4cc(C(=O)Nc5cccn(C6CC6)c5=O)c(OC(C)C)nc4n3)(CO1)C2 (centres unmarked) [Example 29, N-(1-cyclopropyl-2-oxo-1,2-dihydropyridin-3-yl)-6-isopropoxy-2-(1-(methoxymethyl)-2-oxabicyclo[2.2.1]heptan-4-yl)-2H-pyrazolo[3,4-b]pyridine-5-carboxamide]
16 | 0.2 | 62.4 (≈ 134 µM) | 7.93 | – | O=C(Nc1cccn([C@H]2C[C@H]2F)c1=O)c1cc2cn([C@@]34CC[C@@H](C3)OC4)nc2nc1OC1CC1 (single isomer, unassigned) [Example 87]
17 | 0.7 | 19.8 (≈ 45.3 µM) | 3.41 | – | CC(C)Oc1nc2nn(C3CCOCC3)cc2cc1C(=O)Nc1cccn(C2CC2)c1=O [Example 13]
18 | 1.1 | 65.2 (≈ 133 µM) | 5.39 | – | COCC12CC(n3cc4cc(C(=O)Nc5cccn([C@H]6C[C@H]6C)c5=O)c(OC5CC5)nc4n3)(CO1)C2 [Example 90]
19 | 0.5 | – | 2.5 | 47.6 | C[C@@H]1C[C@@H]1n1cccc(NC(=O)c2cc3cn([C@@]45CC[C@@H](C4)OC5)nc3nc2OC2CC2)c1=O (single isomer, unassigned) [Example 93]
20 | 0.2 | 61.8 (≈ 125 µM) | 2.5 | – | COC[C@]12CC[C@](n3cc4cc(C(=O)Nc5cccn(C6CC6)c5=O)c(OC(C)C)nc4n3)(CO1)C2 [Example 31, N-(1-cyclopropyl-2-oxo-1,2-dihydropyridin-3-yl)-6-isopropoxy-2-((1R,4R)-1-(methoxymethyl)-2-oxabicyclo[2.2.1]heptan-4-yl)-2H-pyrazolo[3,4-b]pyridine-5-carboxamide]
